Assay results published in US6706663B2, “Herbicidal 3-heterocyclic substituted benzisothiazole and benzisoxazole compounds” (Wyeth, priority 2000, dated 2004).

Legend:
ORYSAT (Rice, Tebonnet) [1] = experiment: Postemergence herbicidal evaluation; format: in vivo, Oryza sativa, (L.) Tebonnet
Outline: (§1)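 Seedlings grown for about two weeks were sprayed postemergence and then kept under standard greenhouse care. Injury was rated visually 4–5 weeks after treatment on a 0–9 scale against untreated controls, and ratings from repeat tests were averaged.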

GALAP (Galium aparine) = experiment: Postemergence herbicidal evaluation; format: in vivo
Outline: as §1

SETVI (Setaria viridis) [2] = experiment: Postemergence herbicidal evaluation; format: in vivo, (L.) Beau
Outline: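 Visual injury score (0-9: stand, vigor, malformation, size, chlorosis, overall appearance vs untreated control) taken four to five weeks post-spray. Two-week-old seedlings received about 0.0040 to 1.000 kg/ha active compound in acetone/water with 0.5% TWEEN 20.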

SETVI (Setaria viridis) [3] = experiment: Preemergence herbicidal evaluation; format: in vivo, (L.) Beau; conditions: rated 4-5 weeks after treatment
Outline: (§2)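 Seeds mixed with potting soil were planted atop about one inch of soil, then sprayed with test compound in aqueous acetone. Cups were kept in the greenhouse and rated visually 4–5 weeks after treatment on a 0–9 scale against untreated control.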

[4] = test system: ECHCG (Echinochloa crus-galli); experiment: Preemergence herbicidal evaluation; format: in vivo, (L.) Beau; conditions: rated 4-5 weeks after treatment
Outline: as §2

[5] = test system: ECHORC (Echinochloa oryzoides); experiment: Flooded paddy, preemergence weed control; format: in vivo, Echinochloa oryzoides (Ard.) Fritsch.; conditions: rated 3-4 weeks after treatment, 0-9 rating scale
Outline: (§3)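 Visual 0-9 rating versus control, scoring stand, vigor, malformation, size, chlorosis and overall appearance. Silt loam soil, propagules in top 0.5 cm; flood depth 1.5–3 cm held for the whole test; greenhouse.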

[6] = test system: CASOB (Cassia obtusifolia); experiment: Preemergence herbicidal evaluation; format: in vivo, L.; conditions: rated 4-5 weeks after treatment
Outline: as §2

[7] = test system: AMBEL (Ambrosia artemisifolia); experiment: Preemergence herbicidal evaluation; format: in vivo, L.; conditions: rated 4-5 weeks after treatment
Outline: as §2

[8] = test system: CHEAL (Chenopodium album); experiment: Preemergence herbicidal evaluation; format: in vivo, L.; conditions: rated 4-5 weeks after treatment
Outline: as §2

[9] = test system: IPOHE (Ipomoea hederacea); experiment: Postemergence herbicidal evaluation; format: in vivo, (L.) Jacq.
Outline: as §1

[10] = test system: MOOVA (Monochoria vaginalis); experiment: Flooded paddy, preemergence weed control; format: in vivo, Presl.; conditions: rated 3-4 weeks after treatment, 0-9 rating scale
Outline: as §3

[11] = test system: ECHCG (Echinochloa crus-galli); experiment: Postemergence herbicidal evaluation; format: in vivo, (L.) Beau
Outline: as §1

[12] = test system: SAGPY (Sagittaria pygmaea); experiment: Flooded paddy, preemergence weed control; format: in vivo, L.; conditions: rated 3-4 weeks after treatment, 0-9 rating scale
Outline: as §3

[13] = test system: IPOHE (Ipomoea hederacea); experiment: Preemergence herbicidal evaluation; format: in vivo, (L.) Jacq.; conditions: rated 4-5 weeks after treatment
ORYSAT (Rice, Tebonnet) [14] = experiment: Flooded paddy, post-transplant rice tolerance; format: in vivo, Oryza sativa, (L.) Tebonnet; conditions: flooded paddy, post-transplant rice, rated 3-4 weeks after treatment, 0-9 rating scale
Outline: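 Two ten-day-old seedlings were transplanted into silt loam, flooded and held at 1.5 to 3 cm water above the soil before herbicide treatment. Pots stayed in the greenhouse at that water level. Injury was scored visually on a 0-9 scale versus untreated control.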

[15] = test system: ABUTH (Abutilon theophrasti); experiment: Postemergence herbicidal evaluation; format: in vivo, Medic.
Outline: as §1

CYPIR (Cyperus iria) = experiment: Flooded paddy, preemergence weed control; format: in vivo; conditions: rated 3-4 weeks after treatment, 0-9 rating scale
Outline: as §3

ZEAMX (Corn, Field) = experiment: Postemergence herbicidal evaluation; format: in vivo, Zea mays, L.
Outline: as §1

ORYSAT (Rice, Tebonnet) [16] = experiment: Preemergence herbicidal evaluation; format: in vivo, Oryza sativa, (L.) Tebonnet; conditions: rated 4-5 weeks after treatment
[17] = test system: GLXMAW (Soybean, Williams); experiment: Postemergence herbicidal evaluation; format: in vivo, Glycine max, (L.) Merr. cv Williams
Outline: as §1

C[C@H]1OC(c2nsc3ccc(-n4c(=O)cc(C(F)(F)F)n(C)c4=O)cc23)O[C@@H]1C [Compound 48, 3-[3-[(4R,5R)-4,5-dimethyl-1,3-dioxolan-2-yl]-1,2-benzisothiazol-5-yl]-1-methyl-6-(trifluoromethyl)uracil]
5.0: Preemergence herbicidal rating CASOB ([6]; Rate 0.0620 kg/ha) | Postemergence herbicidal rating, ECHCG ([11]; rate 0.0320 kg/ha) | herbicidal rating, ORYSAT (rice tolerance) (ORYSAT (Rice, Tebonnet) [14]; rate 0.0080 kg/ha)
7.5: Preemergence herbicidal rating CASOB ([6]; Rate 0.1250 kg/ha) | herbicidal rating, SAGPY ([12]; rate 0.0320 kg/ha) | Preemergence herbicidal rating ORYSAT (ORYSAT (Rice, Tebonnet) [16]; Rate 0.0620 kg/ha)
8.7: Postemergence herbicidal rating, GLXMAW ([17]; rate 0.0620 kg/ha)
9.0: Postemergence herbicidal rating, GALAP (GALAP (Galium aparine); rate 0.0320 kg/ha) | Postemergence herbicidal rating, GALAP (GALAP (Galium aparine); rate 0.0620 kg/ha) | Postemergence herbicidal rating, SETVI (SETVI (Setaria viridis) [2]; rate 0.0320 kg/ha) | Postemergence herbicidal rating, SETVI (SETVI (Setaria viridis) [2]; rate 0.0620 kg/ha) | Preemergence herbicidal rating SETVI (SETVI (Setaria viridis) [3]; Rate 0.0620 kg/ha) | Preemergence herbicidal rating SETVI (SETVI (Setaria viridis) [3]; Rate 0.1250 kg/ha) | Preemergence herbicidal rating SETVI (SETVI (Setaria viridis) [3]; Rate 0.2500 kg/ha) | Preemergence herbicidal rating ECHCG ([4]; Rate 0.0620 kg/ha) | Preemergence herbicidal rating ECHCG ([4]; Rate 0.1250 kg/ha) | Preemergence herbicidal rating ECHCG ([4]; Rate 0.2500 kg/ha) | herbicidal rating, ECHORC ([5]; rate 0.0320 kg/ha) | herbicidal rating, ECHORC ([5]; rate 0.1250 kg/ha) | Preemergence herbicidal rating CASOB ([6]; Rate 0.2500 kg/ha) | Preemergence herbicidal rating AMBEL ([7]; Rate 0.0620 kg/ha) | Preemergence herbicidal rating AMBEL ([7]; Rate 0.1250 kg/ha) | Preemergence herbicidal rating AMBEL ([7]; Rate 0.2500 kg/ha) | Preemergence herbicidal rating CHEAL ([8]; Rate 0.0620 kg/ha) | Preemergence herbicidal rating CHEAL ([8]; Rate 0.1250 kg/ha) | Preemergence herbicidal rating CHEAL ([8]; Rate 0.2500 kg/ha) | Postemergence herbicidal rating, IPOHE ([9]; rate 0.0320 kg/ha) | Postemergence herbicidal rating, IPOHE ([9]; rate 0.0620 kg/ha) | herbicidal rating, MOOVA ([10]; rate 0.0320 kg/ha) | herbicidal rating, MOOVA ([10]; rate 0.1250 kg/ha) | herbicidal rating, SAGPY ([12]; rate 0.1250 kg/ha) | Preemergence herbicidal rating IPOHE ([13]; Rate 0.2500 kg/ha) | herbicidal rating, ORYSAT (rice tolerance) (ORYSAT (Rice, Tebonnet) [14]; rate 0.1250 kg/ha) | Postemergence herbicidal rating, ABUTH ([15]; rate 0.0320 kg/ha) | Postemergence herbicidal rating, ABUTH ([15]; rate 0.0620 kg/ha) | herbicidal rating, CYPIR (CYPIR (Cyperus iria); rate 0.1250 kg/ha) | Preemergence herbicidal rating ORYSAT (ORYSAT (Rice, Tebonnet) [16]; Rate 0.2500 kg/ha)
0.0: herbicidal rating, SAGPY ([12]; rate 0.0080 kg/ha) | herbicidal rating, CYPIR (CYPIR (Cyperus iria); rate 0.0080 kg/ha)
3.0: Postemergence herbicidal rating, ECHCG ([11]; rate 0.0620 kg/ha)
6.0: Postemergence herbicidal rating, ORYSAT (ORYSAT (Rice, Tebonnet) [1]; rate 0.0620 kg/ha)
5.5: Postemergence herbicidal rating, ORYSAT (ORYSAT (Rice, Tebonnet) [1]; rate 0.0320 kg/ha)
5.7: Postemergence herbicidal rating, ZEAMX (ZEAMX (Corn, Field); rate 0.0620 kg/ha)
8.5: Preemergence herbicidal rating IPOHE ([13]; Rate 0.1250 kg/ha)
4.5: Postemergence herbicidal rating, ZEAMX (ZEAMX (Corn, Field); rate 0.0320 kg/ha)
8.0: herbicidal rating, ECHORC ([5]; rate 0.0080 kg/ha) | Preemergence herbicidal rating IPOHE ([13]; Rate 0.0620 kg/ha) | herbicidal rating, ORYSAT (rice tolerance) (ORYSAT (Rice, Tebonnet) [14]; rate 0.0320 kg/ha) | herbicidal rating, CYPIR (CYPIR (Cyperus iria); rate 0.0320 kg/ha) | Preemergence herbicidal rating ORYSAT (ORYSAT (Rice, Tebonnet) [16]; Rate 0.1250 kg/ha) | Postemergence herbicidal rating, GLXMAW ([17]; rate 0.0320 kg/ha)
